Measured values as given in ChEMBL document CHEMBL2407065, “Discovery of 7-aminofuro[2,3-c]pyridine inhibitors of TAK1: optimization of kinase selectivity and pharmacokinetics” (Bioorg Med Chem Lett, 2013).

Experiments:
[1] = Volume of distribution at steady state in mouse at 2 mg/kg, iv; assay type: ADME, organism-based; design: dose 2 mg/kg, route intravenous; conditions: in vivo, read-out: Vdss
[2] = AUC (0 to last) in mouse at 20 mg/kg, po; assay type: ADME, organism-based; design: time 0 - last, dose 20 mg/kg, route oral; conditions: plasma
[3] = Oral bioavailability in mouse at 20 mg/kg; assay type: ADME, organism-based; conditions: in vivo
Liver microsomes = assay: Drug metabolism in human liver microsomes assessed as M+176 formation; assay type: ADME, Microsome
[4] = Half life in mouse at 2 mg/kg, iv; assay type: ADME, organism-based; design: dose 2 mg/kg, route intravenous; conditions: in vivo
[5] = Cmax in mouse at 20 mg/kg, po; assay type: ADME, organism-based; design: dose 20 mg/kg, route oral; conditions: in vivo
[6] = Clearance in mouse at 2 mg/kg, iv; assay type: ADME, organism-based; design: dose 2 mg/kg, route intravenous; conditions: in vivo
[7] = AUC (0 to infinity) in mouse at 2 mg/kg, iv; assay type: ADME, organism-based; design: dose 2 mg/kg, route intravenous, time infinity; conditions: plasma
[8] = Drug metabolism in mouse liver microsomes assessed as M+176 formation; assay type: ADME, Microsome
[9] = AUC (0 to infinity) in mouse at 20 mg/kg, po; assay type: ADME, organism-based; design: time infinity, dose 20 mg/kg, route oral; conditions: plasma
[10] = molecular target: T1, Mitogen-activated protein kinase kinase kinase 7 (Homo sapiens, UniProt O43318); assay: Inhibition of TAK1 in human HCT116 cells assessed as inhibition of TNF-alpha-stimulated JNK phosphorylation; assay type: cell-based, HCT-116
T1 sequence (O43318 whole entry): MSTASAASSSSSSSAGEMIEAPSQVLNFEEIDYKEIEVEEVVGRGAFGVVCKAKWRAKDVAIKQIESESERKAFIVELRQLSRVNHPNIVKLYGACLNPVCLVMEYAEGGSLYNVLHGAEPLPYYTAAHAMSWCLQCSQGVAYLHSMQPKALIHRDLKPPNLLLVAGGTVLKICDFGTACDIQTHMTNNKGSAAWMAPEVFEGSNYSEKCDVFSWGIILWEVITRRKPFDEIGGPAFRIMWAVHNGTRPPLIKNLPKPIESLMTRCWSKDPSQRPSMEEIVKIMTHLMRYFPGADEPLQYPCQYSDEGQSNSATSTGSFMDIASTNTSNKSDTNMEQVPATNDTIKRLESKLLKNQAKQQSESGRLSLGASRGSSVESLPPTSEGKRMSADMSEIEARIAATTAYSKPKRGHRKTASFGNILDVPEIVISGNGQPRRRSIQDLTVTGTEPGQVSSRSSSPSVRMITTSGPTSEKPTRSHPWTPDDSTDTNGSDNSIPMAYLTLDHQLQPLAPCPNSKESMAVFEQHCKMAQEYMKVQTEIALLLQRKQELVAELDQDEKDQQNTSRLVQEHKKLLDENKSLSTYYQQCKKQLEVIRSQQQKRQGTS

[11] = molecular target: Vascular endothelial growth factor receptor 2 (Homo sapiens, UniProt P35968); assay: Inhibition of KDR autophosphorylation overexpressed in VEGF-stimulated human HEK293 cells; assay type: cell-based
[12] = Metabolic stability in human liver microsomes assessed as extraction ratio; assay type: ADME, Microsome; conditions: read-out: ERH
[13] = Tmax in mouse at 20 mg/kg, po; assay type: ADME, organism-based; design: dose 20 mg/kg, route oral; conditions: in vivo
[14] = Metabolic stability in mouse liver microsomes assessed as extraction ratio; assay type: ADME, Microsome; conditions: read-out: ERH
TAK1/TAB1 = TAK1/TAB1 (Homo sapiens, UniProt O43318); assay: Inhibition of TAK1-TAB1 (unknown origin) by alphascreen assay in presence of ATP; assay type: protein-complex assay
Aurora kinase B = Aurora kinase B (Homo sapiens, UniProt Q96GD4); assay: Inhibition of aurora B kinase in human HT-29 cells assessed as inhibition of histone H3 S10 phosphorylation; assay type: cell-based
[15] = Oral bioavailability in mouse at 100 mg/kg; assay type: ADME, organism-based; conditions: in vivo
[16] = AUC (0 to infinity) in mouse at 100 mg/kg, po; assay type: ADME, organism-based; design: time infinity, dose 100 mg/kg, route oral; conditions: plasma
[17] = molecular target: T1, Mitogen-activated protein kinase kinase kinase 7; assay: Inhibition of TAK1 in human TOV21G cells assessed as inhibition of JNK phosphorylation
[18] = Antitumor activity against human TOV21G cells xenografted in CD-1 nude mouse assessed as tumor growth inhibition at 100 mg/kg, sc qd administered for 14 days measured on day 15 relative to vehicle-treated control; assay type: functional; conditions: route subcutaneous, read-out: TGI
[19] = Cmax in mouse at 100 mg/kg, po; assay type: ADME, organism-based; design: dose 100 mg/kg, route oral; conditions: in vivo

Vascular endothelial growth factor receptor 2, sequence (P35968 whole entry): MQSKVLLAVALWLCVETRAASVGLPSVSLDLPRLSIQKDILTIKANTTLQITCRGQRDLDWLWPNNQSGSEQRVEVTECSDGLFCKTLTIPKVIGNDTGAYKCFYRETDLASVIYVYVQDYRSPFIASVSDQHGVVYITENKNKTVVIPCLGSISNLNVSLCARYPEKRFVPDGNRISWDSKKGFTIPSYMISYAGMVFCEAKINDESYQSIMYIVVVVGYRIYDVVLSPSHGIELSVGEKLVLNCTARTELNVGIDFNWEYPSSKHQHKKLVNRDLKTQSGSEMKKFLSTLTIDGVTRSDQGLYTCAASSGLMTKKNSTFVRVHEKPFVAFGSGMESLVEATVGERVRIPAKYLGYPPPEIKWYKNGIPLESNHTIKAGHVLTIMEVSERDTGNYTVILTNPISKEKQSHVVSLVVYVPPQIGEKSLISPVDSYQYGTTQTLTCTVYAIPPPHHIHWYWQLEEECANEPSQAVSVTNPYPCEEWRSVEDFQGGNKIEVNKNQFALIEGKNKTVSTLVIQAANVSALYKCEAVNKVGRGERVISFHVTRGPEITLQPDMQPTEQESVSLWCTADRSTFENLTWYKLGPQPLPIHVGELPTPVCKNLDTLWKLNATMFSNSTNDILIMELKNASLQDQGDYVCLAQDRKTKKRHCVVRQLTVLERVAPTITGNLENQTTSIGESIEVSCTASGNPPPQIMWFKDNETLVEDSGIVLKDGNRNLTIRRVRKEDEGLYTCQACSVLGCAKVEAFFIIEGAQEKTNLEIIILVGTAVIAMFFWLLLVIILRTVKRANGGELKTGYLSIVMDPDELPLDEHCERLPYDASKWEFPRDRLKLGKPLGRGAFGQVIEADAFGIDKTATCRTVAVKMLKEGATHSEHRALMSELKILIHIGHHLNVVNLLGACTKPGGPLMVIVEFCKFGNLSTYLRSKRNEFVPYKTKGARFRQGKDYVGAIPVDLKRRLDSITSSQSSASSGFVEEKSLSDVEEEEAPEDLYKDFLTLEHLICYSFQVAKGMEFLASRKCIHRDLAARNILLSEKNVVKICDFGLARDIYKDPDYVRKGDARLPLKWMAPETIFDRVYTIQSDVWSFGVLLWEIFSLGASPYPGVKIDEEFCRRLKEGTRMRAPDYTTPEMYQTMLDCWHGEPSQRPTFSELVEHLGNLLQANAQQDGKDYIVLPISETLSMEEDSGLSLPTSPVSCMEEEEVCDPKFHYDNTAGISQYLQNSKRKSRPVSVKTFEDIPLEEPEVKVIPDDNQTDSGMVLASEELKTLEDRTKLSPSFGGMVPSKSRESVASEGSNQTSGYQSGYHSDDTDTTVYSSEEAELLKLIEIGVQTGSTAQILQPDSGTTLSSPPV
TAK1/TAB1, sequence (Q15750 whole entry, one chain of several): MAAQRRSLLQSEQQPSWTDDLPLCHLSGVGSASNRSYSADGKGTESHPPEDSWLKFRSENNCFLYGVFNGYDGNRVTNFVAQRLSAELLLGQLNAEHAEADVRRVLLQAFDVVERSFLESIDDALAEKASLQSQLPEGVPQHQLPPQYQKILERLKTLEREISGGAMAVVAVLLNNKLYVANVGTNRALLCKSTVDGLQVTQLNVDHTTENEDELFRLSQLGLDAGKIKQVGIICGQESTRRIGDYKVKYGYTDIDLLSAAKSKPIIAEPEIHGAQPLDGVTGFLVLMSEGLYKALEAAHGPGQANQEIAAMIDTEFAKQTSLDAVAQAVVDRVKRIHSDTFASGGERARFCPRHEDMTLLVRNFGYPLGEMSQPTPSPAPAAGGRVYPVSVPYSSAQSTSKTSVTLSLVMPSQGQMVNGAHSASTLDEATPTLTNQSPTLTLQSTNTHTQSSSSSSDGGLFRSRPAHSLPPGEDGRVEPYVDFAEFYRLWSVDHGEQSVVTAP
Aurora kinase B, sequence (Q96GD4 whole entry): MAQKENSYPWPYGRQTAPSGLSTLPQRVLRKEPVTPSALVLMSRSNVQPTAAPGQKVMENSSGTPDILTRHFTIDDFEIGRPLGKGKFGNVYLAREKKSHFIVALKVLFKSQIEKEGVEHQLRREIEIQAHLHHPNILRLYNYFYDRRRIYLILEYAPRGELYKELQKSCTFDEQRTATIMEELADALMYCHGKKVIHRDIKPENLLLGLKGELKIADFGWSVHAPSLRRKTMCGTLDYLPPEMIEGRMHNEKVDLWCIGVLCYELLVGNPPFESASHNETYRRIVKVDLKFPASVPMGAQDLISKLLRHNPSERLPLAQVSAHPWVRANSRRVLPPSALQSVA

Structure (SMILES) | IC50 [10] | IC50 [11] | IC50 (TAK1/TAB1) | IC50 (Aurora kinase B) | further results
CC(=O)N1CCC(n2cc(-c3cnc(N)c4oc(-c5csc6cnccc56)cc34)cn2)CC1 |  |  |  |  | Vd [1]: 2.5 L/kg; AUC(0-t) [2]: 21 ng·h/mL; bioavailability [3]: 1%; Drug metabolism (Liver microsomes): Active; half-life [4]: 0.1 h; Cmax [5]: 0.03 µM; clearance [6]: 178 mL/min/kg; AUC(0-inf) [7]: 187 ng·h/mL; Drug metabolism [8]: Active
Nc1ncc(-c2cnn([C@H]3CC[C@H](O)CC3)c2)c2cc(-c3cccc4cnsc34)oc12 |  |  |  |  | Vd [1]: 12 L/kg; AUC(0-inf) [9]: 821 ng·h/mL; bioavailability [3]: 27%; half-life [4]: 3.3 h; Cmax [5]: 1.1 µM; clearance [6]: 111 mL/min/kg; AUC(0-inf) [7]: 299 ng·h/mL
Nc1ncc(-c2cnn([C@H]3CC[C@H](O)CC3)c2)c2cc(-c3cccc4nnsc34)oc12 | 15 nM | 650 nM | 9 nM | 160 nM | Vd [1]: 4.1 L/kg; AUC(0-inf) [9]: 16000 ng·h/mL; hepatic extraction ratio [12]: 0.48; half-life [4]: 1.6 h; Tmax [13]: 8 h; Cmax [5]: 7.8 µM; clearance [6]: 70 mL/min/kg; hepatic extraction ratio [14]: 0.63; AUC(0-inf) [7]: 477 ng·h/mL
Nc1ncc(-c2cnn([C@H]3CC[C@H](O)CC3)c2)c2c(Cl)c(-c3cccc4nnsc34)oc12 | 18 nM | > 20000 nM |  | 6500 nM | bioavailability [15]: 32%; Vd [1]: 2.1 L/kg; AUC(0-inf) [9]: 8770 ng·h/mL; bioavailability [3]: 52%; hepatic extraction ratio [12]: 0.4; half-life [4]: 2.1 h; Cmax [5]: 3.8 µM; clearance [6]: 20 mL/min/kg; hepatic extraction ratio [14]: 0.39; AUC(0-inf) [16]: 26800 ng·h/mL; IC50 [17]: 28 nM; AUC(0-inf) [7]: 1700 ng·h/mL; inhibition in vivo at 100 mg/kg [18]: 62%; Cmax [19]: 7.1 µM
N#Cc1c(-c2cccc3nnsc23)oc2c(N)ncc(-c3cnn([C@H]4CC[C@H](O)CC4)c3)c12 | 17 nM | > 20000 nM | 160 nM | > 10000 nM | hepatic extraction ratio [12]: 0.38; hepatic extraction ratio [14]: 0.43
Nc1ncc(-c2cnn([C@H]3CC[C@H](O)CC3)c2)c2c(-c3cccnc3)c(-c3cccc4nnsc34)oc12 | 130 nM | 8200 nM | 110 nM | 6900 nM | hepatic extraction ratio [12]: 0.41; hepatic extraction ratio [14]: 0.48
Nc1ncc(-c2cnn([C@H]3CC[C@H](O)CC3)c2)c2c(-c3cncs3)c(-c3cccc4nnsc34)oc12 | 43 nM | 760 nM | 31 nM | 1700 nM | hepatic extraction ratio [12]: 0.55; hepatic extraction ratio [14]: 0.53
Nc1ncc(-c2cnn([C@H]3CC[C@H](O)CC3)c2)c2c(CF)c(-c3cccc4nnsc34)oc12 | 45 nM | 18300 nM | 17 nM | 1500 nM | hepatic extraction ratio [12]: 0.49; hepatic extraction ratio [14]: 0.43
Nc1ncc(-c2cnn([C@H]3CC[C@H](O)CC3)c2)c2c(C(F)F)c(-c3cccc4nnsc34)oc12 | 20 nM | > 20000 nM | 14 nM | 1700 nM | Vd [1]: 1 L/kg; AUC(0-inf) [9]: 33700 ng·h/mL; bioavailability [3]: 98%; hepatic extraction ratio [12]: 0.48; half-life [4]: 1.8 h; Cmax [5]: 18.6 µM; clearance [6]: 10 mL/min/kg; hepatic extraction ratio [14]: 0.39; AUC(0-inf) [7]: 3440 ng·h/mL
Cn1cc(-c2cnc(N)c3oc(-c4csc5cnccc45)cc23)cn1 | 190 nM | 3400 nM | 150 nM | 3000 nM | 
Cn1ccc(-c2cnc(N)c3oc(-c4csc5cnccc45)cc23)c1 |  |  | 4900 nM |  | 
Cn1cnc(-c2cnc(N)c3oc(-c4csc5cnccc45)cc23)c1 |  |  | 12700 nM |  | 
Nc1ncc(-c2ccoc2)c2cc(-c3csc4cnccc34)oc12 |  |  | 560 nM |  | 
Cc1ccc(-c2cnc(N)c3oc(-c4csc5cnccc45)cc23)o1 |  |  | 2100 nM |  | 
Nc1ncc(-c2ccsc2)c2cc(-c3csc4cnccc34)oc12 |  |  | 2200 nM |  | 
Cc1ccc(-c2cnc(N)c3oc(-c4csc5cnccc45)cc23)s1 |  |  | 4600 nM |  | 
Nc1ncc(-c2cscn2)c2cc(-c3csc4cnccc34)oc12 |  |  | 1400 nM |  | 
Cc1ncc(-c2cnc(N)c3oc(-c4csc5cnccc45)cc23)s1 |  |  | 230 nM |  | 
Nc1ncc(-c2ccccc2)c2cc(-c3csc4cnccc34)oc12 |  |  | 3200 nM |  | 
Nc1ncc(-c2cccnc2)c2cc(-c3csc4cnccc34)oc12 |  |  | 3800 nM |  | 
Nc1ncc(C2=CCNCC2)c2cc(-c3csc4cnccc34)oc12 |  |  | 23600 nM |  | 
COCC#Cc1cnc(N)c2oc(-c3csc4cnccc34)cc12 |  |  | 2900 nM |  | 
Cc1nn(C)cc1-c1cnc(N)c2oc(-c3csc4cnccc34)cc12 | 1000 nM | > 20000 nM | 3500 nM | > 20000 nM | 
Cc1c(-c2cnc(N)c3oc(-c4csc5cnccc45)cc23)cnn1C | 3000 nM | 19900 nM | 4100 nM | 17400 nM | 
Cc1nn(C)c(C)c1-c1cnc(N)c2oc(-c3csc4cnccc34)cc12 | 4400 nM |  | 23900 nM |  | 
COc1nn(C)cc1-c1cnc(N)c2oc(-c3csc4cnccc34)cc12 | 1700 nM | > 20000 nM | 600 nM | > 20000 nM | 
Cn1cc(-c2cnc(N)c3oc(-c4csc5cnccc45)cc23)c(C#N)n1 | > 10000 nM |  | 22800 nM |  | 
